Experiments:
[1] = Microsomal stability, human liver microsomes; format: in vitro ADME; settings: for % Drug Remaining: Human Liver Microsomes
Procedure: (§1) Human and mouse liver microsomes and NADPH regenerating system solutions were purchased from Corning Life Sciences (Tewsbury, MA). Human and mouse K2EDTA was purchased from BioIVT (Westbury, NY). Metabolic studies in liver microsomes (0.125 mg/mL) were conducted in 1× phosphate buffered saline (pH 7.4), NADPH-generating system, and 10 μM of RA475 in a final volume of 250 μl. An incubation mixture with and without NADPH-generating system as well as a neat solution without microsomes and NADPH-generating system were prepared. RA475 was added at the same concentration level into human and mouse EDTA plasma. All reactions were initiated with the addition of RA475. Incubations were performed in glass tubes maintained at 37° C. in a shaker bath. At 0, 30, and 60 minutes, 10 μL aliquots were sampled from the reaction mixture and 0.5 mL of acetonitrile containing internal standard (Up284) was added to each samples. Samples were vortex-mixed and underwent centrifugation for 5 min at 1430×g. A 10 μL aliquot of the supernatant was injected onto the LC-MS instrument for qualitative analysis using a temperature-controlled autosampling device operating at 5° C. Chromatographic analysis was performed using a Waters Acquity™ Ultra Performance LC. […] The mobile phase used for the chromatographic separation was composed of water (mobile phase A) and acetonitrile (mobile phase B) containing 0.1% (v/v) formic acid with a flow rate of 0.3 mL/min. The initial mobile phase composition was 80% mobile phase A and 20% mobile phase B. From 0.5 to 1 min, mobile phase B was increased linearly from 20% to 100%. From 1 to 3 min, mobile phase B was maintained at 100%. From 3.0 to 3.1 min, the gradient decreased to 20% mobile phase B and the conditions were maintained until 4.1 min to re-equilibrate the column for the next injection. The column effluent was monitored using an AB Sciex 5500 triple quadrupole mass spectrometer. The instrument was equipped with an electrospray interface, operated in a positive mode and controlled by the Analyst v1.6 software. For the stability study, the mass spectrometer was programmed to monitor the following MRM transition 408.2→366.1 for RA475 and 366.2→155.8 for UP284 (internal standard). Results were assessed qualitatively comparing the average area ratio of RA475 at 0 hr to area ratio at 30 and 60 minutes for both mouse and human liver microsomes. RA475 was not analyzed for metabolites due to the concentration of RA475 not decreasing.

Neat solution stability = format: physicochemical; settings: 10 μM, 37° C.
Procedure: as §1

[2] = Microsomal stability, mouse liver microsomes; format: in vitro ADME
Procedure: as §1

[3] = Plasma stability, mouse EDTA plasma; format: in vitro ADME; settings: 37° C.
Procedure: as §1

[4] = test system: 4UbFL reporter in leg muscle of CD-1 mice; test: On-target activity in vivo using 4UbFL; design: species or system mouse; settings: 40 mg/Kg single i.p. dose
Procedure: A patch was shaved of hair on one leg of CD-1 mice, and 10 μg 4UbFL plasmid in 20 μL of PBS was injected into the quadriceps femoralis muscle followed immediately by injection of the 2 Needle Array to 5 mm depth encompassing the injection site and square wave electroporation (ElectroSquarePorator 833, BTX-2 Needle array 5 mm gap, Harvard apparatus) delivered as eight pulses at 106V for 20 ms with 200 ms intervals. One day post electroporation, mice were anesthetized with isoflurane, injected i.p. with luciferin (0.3 mg in 100 μL water) and optical imaging was performed to determine basal level luciferase expression. Images were acquired for 10 min with a Xenogen IVIS 200 (Caliper, Hopkinton, MA). Equally sized areas were analyzed using Living Image 2.20 software. Mice were imaged weekly during treatment. Mice were randomized into three groups (n=5) and treated i.p. once with Vehicle (25% (w/v) β-Hydroxypropylcyclodextrin in water, Sigma Aldrich), RA475 (40 mg/Kg) and Up284 (40 mg/Kg) and mice were imaged again at 4 hr, 24 hr, 48 hr, 72 hr and 96 hr later.
To assess on-target activity in vivo, 4UbFL plasmid was injected into the muscle of one leg of CD-1 mice followed by electroporation. Luciferin was injected i.p. 24 hr later and the mice were tagged and imaged using an IVIS200 to visualize their basal bioluminescence. The mice were then immediately randomized to 3 groups and treated with vehicle alone (25% β-hydroxypropylcyclodextrin-water solution), RA475 (40 mg/Kg) and Up284 (40 mg/Kg) administered as a single i.p. dose. To examine the on-target activity, the mice were imaged again at 4 hr, 24 hr, 48 hr, 72 hr and 96 hr later.

[5] = test system: ES2 cells stably expressing 4UbFL; test: In vitro 4UbFL assay, ES2 cells; format: cell-based; settings: ES2-4UbFL cells, two-fold dilution series, 4 hr
Procedure: Sub-confluent cultures of ES2 cells stably expressing 4UbFL were seeded at 10,000 cells/well in 96-well microtiter plates. At 18 hr post transfection, cells were treated with compounds or vehicle (DMSO) at the doses indicated. After a 4 hr incubation, the cells were lysed and the luciferase activity in each cell lysate was determined with a luciferase assay kit (Promega) according to the manufacturer's instructions. Bioluminescence was measured by using a luminometer (Glomax Multidetection system, Promega).
To measure RA475 on-target activity in live cells, the inventors used an expression vector for the reporter gene 4UbFL in which the gene for firefly luciferase (FL) is inserted in-frame 3′ to four copies of ubiquitin (PMID: 12819780). […] Proteasome inhibition stabilizes 4UbFL and thus increases the bioluminescence signal upon addition of luciferin substrate, and this can be measured by a luminometer (for cells) or visualized by IVIS imaging (for mice).
ES2 cells stably transfected with 4UbFL expression plasmid (ES2-4UbFL) were plated in a 96 well microtiter plate and 18 hr later treated with DMSO only as a negative control, or two-fold dilution series of either Up284 or RA475. After 4 hr medium was removed and the cells were lysed using luciferase lysis buffer and bioluminescence was measured using a luminometer after the addition of luciferin substrate.

[6] = Plasma stability, human EDTA plasma; format: in vitro ADME; settings: 37° C.
Procedure: as §1

Row | Structure (SMILES) | % Drug Remaining ([1]; NADPH Neg, 0 minutes) [%] | % Drug Remaining ([1]; NADPH Neg, 30 minutes) [%] | % Drug Remaining ([1]; NADPH Neg, 60 minutes) [%] | % Drug Remaining ([1]; NADPH Pos, 0 minutes) [%] | % Drug Remaining ([1]; NADPH Pos, 30 minutes) [%] | % Drug Remaining ([1]; NADPH Pos, 60 minutes) [%] | % Drug Remaining (Neat solution stability; 0 minutes) [%] | % Drug Remaining (Neat solution stability; 30 minutes) [%] | % Drug Remaining (Neat solution stability; 60 minutes) [%] | % Drug Remaining ([2]; NADPH Neg, 0 minutes) [%] | % Drug Remaining ([2]; NADPH Neg, 30 minutes) [%] | % Drug Remaining ([2]; NADPH Neg, 60 minutes) [%] | % Drug Remaining ([2]; NADPH Pos, 0 minutes) [%] | % Drug Remaining ([2]; NADPH Pos, 30 minutes) [%] | % Drug Remaining ([2]; NADPH Pos, 60 minutes) [%] | % Drug Remaining ([3]; 0 minutes) [%] | % Drug Remaining ([3]; 30 minutes) [%] | % Drug Remaining ([3]; 60 minutes) [%] | increase in bioluminescence at the site of electroporation over baseline ([4]; 24 hr after administration) [fold] | bioluminescent signal of 4UbFL reporter [5] | also measured
1 | Cl.Cl.N#Cc1ccc(/C=C2/C(=O)/C(=C/c3ccc(C#N)cc3)C23CCN(C(=N)N)CC3)cc1 [RA475] | 100 | 99 | 93 | 100 | 112 | 102 | 100 | 108 | 111 | 100 | 90 | 108 | 100 | 93 | 98 | 100 | 109 | 109 | 6 | significantly increased | maximal decrease of area ratio ([1]; human liver microsomes lacking NADPH regeneration solution): 7%; increase in bioluminescence at the site of electroporation over baseline ([4]; 4 hr after administration): 24 fold; % Drug Remaining ([6]; 0 minutes): 100%; % Drug Remaining ([6]; 30 minutes): 108%; % Drug Remaining ([6]; 60 minutes): 107%
2 | N#Cc1ccc(/C=C2/C(=O)/C(=C/c3ccc(C#N)cc3)C23CCNCC3)cc1 [Up284, reference compound] | 100 | 57 | 52 | 100 | 43 | 43 | 100 | 86 | 78 | 100 | 60 | 51 | 100 | 45 | 38 | 100 | 84 | 94 | ~3 | significantly increased | % Drug Remaining ([6]; 0 minutes): 100%; % Drug Remaining ([6]; 30 minutes): 100%; % Drug Remaining ([6]; 60 minutes): 90%
